The record followed here is PubChem BioAssay (NCI).

Some test systems named below: A498 renal; MCF7 breast; HOP-62 NSCLC; SN12C renal; HCT-116 colon; UACC-62 melanoma; NCI-H460 lung; MDA-MB-435; RPMI-8226 leukemia; DU-145 prostate.
Holding throughout (assay): inhibition of tumour cell growth, NCI panel, 48 h

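In this assay, cells in 96-well plates receive the compound at five concentrations for 48 hours. Endpoints are linearly interpolated between the surrounding concentrations. GI50 = concentration required for 50% inhibition of growth. The concentration for full growth arrest is given as TGI.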

`CC/C=C\C=C/C(=O)N/C=C/CC1Cc2cccc(O)c2C(=O)O1` (stereo not given): the GI50 is 20.6 µM in the experiment on A498 renal; 3.87 µM with MCF7 breast; 14.5 µM with HOP-62 NSCLC; 17.8 µM in the experiment with SN12C renal; 19.1 µM with HCT-116 colon; 22.6 µM with UACC-62 melanoma. The GI50 is 24.3 µM with NCI-H460 lung, 3 µM in the experiment with MDA-MB-435, 22.2 µM with RPMI-8226 leukemia and 17.3 µM with DU-145 prostate. Besides, the TGI was 59.9 µM in the experiment with A498 renal; 49.4 µM in the experiment with MCF7 breast; 50.5 µM with HOP-62 NSCLC; 38.1 µM in the experiment with SN12C renal; 42.2 µM in the experiment with HCT-116 colon; more than 100 µM with UACC-62 melanoma. Moreover, the TGI in the experiment on NCI-H460 lung worked out at 62.1 µM; in the experiment with MDA-MB-435, 10.7 µM; with RPMI-8226 leukemia, 56.4 µM; in the experiment with DU-145 prostate, 52 µM.
Take `CCN(CC)S(=O)(=O)c1ccc(OC)c(Nc2ncc(-c3ccccc3)o2)c1`: the GI50 in the experiment with A498 renal is 1.24 µM; in the experiment on MCF7 breast it was more than 14.7 µM; in the experiment with HOP-62 NSCLC it was more than 20.1 µM; in the experiment with SN12C renal, more than 22.7 µM; with HCT-116 colon, more than 17.9 µM; in the experiment on UACC-62 melanoma, more than 18.3 µM. For the same molecule, the GI50 in the experiment with NCI-H460 lung was more than 23.1 µM; in the experiment with MDA-MB-435 it was more than 25 µM; in the experiment with RPMI-8226 leukemia, more than 25 µM; in the experiment on DU-145 prostate, more than 25 µM. Also, the TGI is more than 15.5 µM in the experiment with A498 renal; more than 25 µM in the experiment with MCF7 breast; more than 25 µM with HOP-62 NSCLC; more than 25 µM in the experiment on SN12C renal; more than 25 µM in the experiment on HCT-116 colon; more than 25 µM in the experiment on UACC-62 melanoma. Also, the TGI with NCI-H460 lung, in the experiment on MDA-MB-435, in the experiment with RPMI-8226 leukemia and in the experiment with DU-145 prostate was more than 25 µM in each case.
On to `CC(C)(C)C[C@H]1NC(C(=O)NCC[C@H](O)CO)[C@H](c2cccc(Cl)c2)[C@@]12C(=O)Nc1cc(Cl)c(F)cc12` (stereo not given in full), for which the GI50 was 4.41 µM with A498 renal; 1.61 µM with MCF7 breast; 15.5 µM in the experiment on HOP-62 NSCLC; 19.8 µM in the experiment with SN12C renal; 3.07 µM in the experiment with HCT-116 colon; 1.6 µM in the experiment on UACC-62 melanoma. Besides, the GI50 is 2.45 µM in the experiment on NCI-H460 lung, 14.1 µM in the experiment with MDA-MB-435, 12.8 µM in the experiment with RPMI-8226 leukemia and 16.1 µM in the experiment with DU-145 prostate. In addition, the TGI in the experiment on A498 renal was found to be 18.7 µM; with MCF7 breast it was 11.7 µM; with HOP-62 NSCLC, 29.7 µM; with SN12C renal, 46.8 µM; with HCT-116 colon, 16.3 µM; with UACC-62 melanoma, 15.8 µM. Further, the TGI was determined as 14.6 µM in the experiment on NCI-H460 lung, 29.6 µM in the experiment on MDA-MB-435, 38.4 µM with RPMI-8226 leukemia and 30.6 µM in the experiment with DU-145 prostate.
For `O=C1OC(=O)C(c2c[nH]c3ccccc23)=C1c1c[nH]c2ccccc12`, the GI50 in the experiment on A498 renal, in the experiment on MCF7 breast, in the experiment on HOP-62 NSCLC, with SN12C renal, in the experiment on HCT-116 colon and in the experiment with UACC-62 melanoma was more than 25 µM throughout. In addition, the GI50 in the experiment with NCI-H460 lung, in the experiment with MDA-MB-435, in the experiment on RPMI-8226 leukemia and in the experiment on DU-145 prostate was more than 25 µM each time. The TGI in the experiment with A498 renal, with MCF7 breast, in the experiment with HOP-62 NSCLC, in the experiment with SN12C renal, in the experiment on HCT-116 colon and in the experiment on UACC-62 melanoma was more than 25 µM each time. Besides, the TGI with NCI-H460 lung, with MDA-MB-435, with RPMI-8226 leukemia and in the experiment with DU-145 prostate was more than 25 µM each time.
As to `Cc1ccc2c(ccc3c[n+]4c5ccccc5ccc4n32)c1`, the GI50 is 0.437 µM in the experiment on A498 renal; 2.07 µM in the experiment on MCF7 breast; 1.28 µM with HOP-62 NSCLC; 0.297 µM with SN12C renal; 1.85 µM in the experiment on HCT-116 colon; 0.795 µM in the experiment on UACC-62 melanoma. Also, the GI50 with NCI-H460 lung is 1.2 µM; in the experiment with MDA-MB-435, 1.13 µM; in the experiment with RPMI-8226 leukemia, 2.72 µM; with DU-145 prostate, 1.32 µM. For the same molecule, the TGI amounted to 5.78 µM in the experiment on A498 renal; 8.49 µM with MCF7 breast; 12.6 µM in the experiment on HOP-62 NSCLC; 2.5 µM with SN12C renal; 7.51 µM with HCT-116 colon; 2.32 µM with UACC-62 melanoma. For the same molecule, the TGI is 5.41 µM in the experiment on NCI-H460 lung, 2.55 µM in the experiment with MDA-MB-435, 18.8 µM in the experiment with RPMI-8226 leukemia and 12.3 µM in the experiment with DU-145 prostate.
Consider `COc1ccc(N2C(C)=C(C#N)C34C(=O)N(c5ccccc5)C(=O)C3=C(O)C=CC24O)cc1` (stereo not given), for which the GI50 in the experiment with A498 renal was 18.6 µM; with MCF7 breast it was 10.6 µM; with HOP-62 NSCLC, 22.7 µM; in the experiment on SN12C renal, 10 µM; in the experiment with HCT-116 colon, 9.73 µM; in the experiment on UACC-62 melanoma, 5.06 µM. The GI50 in the experiment with NCI-H460 lung is 14.6 µM; with MDA-MB-435 it was 5.5 µM; in the experiment with RPMI-8226 leukemia, 3.44 µM; with DU-145 prostate, 10.5 µM. Besides, the TGI was found to be 48.2 µM with A498 renal; 34.9 µM in the experiment on MCF7 breast; 75.8 µM with HOP-62 NSCLC; 21.9 µM in the experiment on SN12C renal; 25.5 µM in the experiment on HCT-116 colon; 18.7 µM with UACC-62 melanoma. Further, the TGI in the experiment with NCI-H460 lung is 61.4 µM; in the experiment on MDA-MB-435 it was 28.7 µM; in the experiment with RPMI-8226 leukemia it was 19.3 µM; in the experiment on DU-145 prostate, 26.8 µM.
